Columns and labels:
thrombi = experiment: Preliminary thrombus binding dose experiment in rats; format: in vivo; details: 3.4 μCi/13.3 μg/rat (550 gr)
Description: Determination of thrombus to blood and thrombus to muscle ratios: Before performing the pharmacokinetic studies, the arterial and venous vessels of the same animals are wounded until a thrombus is formed. The ascending vena cava (below the kidneys) and the descending aorta (immediately above the bifurcation) are clamped with a rubber tipped mosquito clamps for 2 hours for the artery and one hour for the vein. A thrombotic occlusion is formed of approximately 1.5 cm length. The specific binding of ^125 I-FBP (11 kDa to start) to the preformed thrombus, is determined compared to blood and muscle (wt/wt), over time, following injection. The amount of ^125 I-FBP that binds to an injured vessel versus an uninjured vessel is also quantitated. The time for optimal binding is crucial for feasibility of imaging (less than two hours would be considered adequate). The testing of binding to thrombi prepared 24 hours (or longer) ahead (preformed thrombi) compared to newly formed thrombi is also performed. This will determine the efficacy of ^125 I-FBP to older and newly forming thrombi.
Dosimetry Studies: Determination of the optimal dose (μCi/μg/kg) required for binding (Dose response) to thrombi: Three different doses were injected following injury, and thrombi removed at the various indicated above.

fibrinogen = experiment: Binding of eluted 11 kDa fragment to fibrinogen-SEPHAROSE column; details: 37° C.; ethylene glycol eluted material

11 kDa FBP: 11 kDa C-terminal proteolytic (subtilisin) fibrin-binding fragment of human plasma fibronectin, residues 2123-2232 of SEQ ID NO:1
binding to thrombi compared to blood (thrombi): sufficient binding to thrombi compared to blood
% of applied material bound to fibrinogen-SEPHAROSE column (fibrinogen): 4-5%
